# Marks after values point to notes of the source that are not given here.
# Experiments:
# [1] = pharmacokinetic evaluation in rats after oral and intravenous administration; format: in vivo; settings: Sprague-Dawley, rat, plasma, male SD rats, oral 10.0 mg/kg, intravenous 1.0 mg/kg, route and unit inferred
# Protocol: Using rats as test animals, an LC/MS/MS method was used to determine the drug concentrations in plasma at different times after oral and intravenous administration of Compound 1a and Compound 14 in the rats. The pharmacokinetic behavior of the compounds of the present invention in rats was studied, and pharmacokinetic characteristics thereof were evaluated.
# For each compound, 6 healthy adult SD (Sprague-Dawley) rats, male, were divided into oral and intravenous administration groups, 3 rats in each group, purchased from Shanghai SIPPR/BK Laboratory Animal Co., Ltd., animal production license number: SCXK (Shanghai) 2008-0016.
# A specific amount of the drug was weighed and dissolved in 5% dimethylacetamide (DMA) + 5% polyethylene glycol-15 hydroxystearate (solutol) + 90% saline solution to prepare a 0.2 mg/mL solution.
# The SD rats were fasted overnight and were administered orally and intravenously. The oral dose was 10.0 mg/kg, and the intravenous dose was 1.0 mg/kg.
# Compound 1a and Compound 14 were administered orally and intravenously to the rats. At 0.083, 0.25, 0.5, 1, 2, 4, 8, and 24 hours after administration, 0.2 mL of blood was collected from the submandibular vein or other suitable blood vessels, placed in K2-EDTA tubes, and then stored on ice. Within one hour, the plasma was separated by centrifugation at 6,800 g for 6 minutes at 2-8° C., and stored at -80° C. for LC/MS/MS analysis. The rats were fed 4 hours after administration.
# rat CFA pain model [2] = test: single-dose pharmacodynamic study in rat CFA pain model (Von Frey PWT); format: in vivo; settings: for Mechanical allodynia test (PWT (g), mean) Baseline: 10 mg/kg I.P. group, baseline 24 h after CFA, before administration; for Mechanical allodynia test (PWT (g), mean) 1 hour: 1 hour after single administration; for Mechanical allodynia test (PWT (g), mean) 3 hours: 3 hours after single administration; for inhibition of CFA-induced mechanical allodynia (in words): single administration, FIG. 1
# Protocol: Each male SD rat (7-8 weeks old) was injected with 50 microliters of CFA in the center of the left hind paw. A PWT basal value test was conducted 24 hours after modeling, and the drugs were administered after randomization.
# There were 8 animals in each group, and the animals were weighed and administered according to Table 4.
# For all groups of animals, paw withdrawal thresholds (PWTs) of the animals were tested using Von Frey after 1 h and 3 h of single administration.
# rat CFA pain model [3] = test: multi-dose oral pharmacodynamic study in rat CFA pain model (Von Frey PWT); format: in vivo
# Protocol: The efficacy of Compound 1a and Compound 14 in the rat CFA pain model was evaluated using a mechanical allodynia method.
# SD rats, 72 males, divided into 9 groups, were purchased from Beijing Vital River Laboratory Animal Technology Co., Ltd.
# The experimental animals were adaptively reared for 3 to 7 days, and 8 of them were selected as a normal control group, and the other animals were injected with 50 µL of CFA in the center of the left hind paw for modeling. 24 hours after injection, the animals were tested for paw withdrawal threshold (PWT) basal values, and were divided into groups according to the basal values, which were solvent control group, indomethacin group, Compound 1a, 10 mpk group, Compound 1a, 30 mpk group, Compound 1a, 100 mpk group, Compound 14, 3 mpk group, Compound 14, 10 mpk group, and Compound 14, 30 mpk group, with 8 animals in each group. Subsequently, the animals were weighed and administered orally according to Table 6. All the animals were tested for paw withdrawal thresholds (PWT) using Von Frey 1, 2, and 4 hours after administration to further evaluate the efficacy of the compounds of the present invention.
# human SSTR1 = target: T1, human SSTR1 (Homo sapiens, UniProt P30872); test: biochemical; settings: 25° C., 2 hours, Cheng-Prusoff; read-out: Binding Ki (nM) SSTR1
# T1 construct: expressed in transfected cells; host or cells: CHO-K1 (membrane homogenates)
# Protocol: (§1) Cell membranes were then filtered and washed, and protein-bound radioactivity was measured with a suitable instrument. The Ki values of corresponding targets were calculated using a Cheng-Prusoff formula.
# human SSTR2 = target: T2, human SSTR2 (Homo sapiens, UniProt P30874); test: biochemical; settings: 25° C., 2 hours, Cheng-Prusoff; read-out: Binding Ki (nM) SSTR2
# T2 construct: expressed in transfected cells; host or cells: CHO-K1 (membrane homogenates)
# Protocol: as §1
# human SSTR3 = target: T3, human SSTR3 (Homo sapiens, UniProt P32745); test: biochemical; settings: 25° C., 2 hours, Cheng-Prusoff; read-out: Binding Ki (nM) SSTR3
# T3 construct: expressed in transfected cells; host or cells: CHO-K1 (membrane homogenates)
# Protocol: as §1
# human SSTR5 = target: T4, human SSTR5 (Homo sapiens, UniProt P35346); test: biochemical; settings: 25° C., 2 hours, Cheng-Prusoff; read-out: Binding Ki (nM) SSTR5
# T4 construct: expressed in transfected cells; host or cells: CHO-K1 (membrane homogenates)
# Protocol: as §1
# human SSTR4 = target: T5, human SSTR4 (Homo sapiens, UniProt P31391); test: radioligand binding assay, [125I]Somatostatin-14, CHO-K1 membranes
# T5 construct: expressed in transfected cells
# Protocol: as §1
# T5 sequence (P31391 whole entry): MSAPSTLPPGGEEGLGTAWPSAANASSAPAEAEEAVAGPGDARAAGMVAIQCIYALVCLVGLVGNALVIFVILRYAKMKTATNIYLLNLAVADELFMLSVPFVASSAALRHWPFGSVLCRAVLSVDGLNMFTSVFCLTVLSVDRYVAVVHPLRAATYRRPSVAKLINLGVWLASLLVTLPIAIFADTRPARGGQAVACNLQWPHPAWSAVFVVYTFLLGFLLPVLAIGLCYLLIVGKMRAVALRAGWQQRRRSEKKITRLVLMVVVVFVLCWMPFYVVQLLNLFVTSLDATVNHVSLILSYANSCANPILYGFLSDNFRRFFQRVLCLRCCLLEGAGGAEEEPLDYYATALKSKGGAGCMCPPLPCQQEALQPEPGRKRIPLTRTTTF
# T4 sequence (P35346 whole entry): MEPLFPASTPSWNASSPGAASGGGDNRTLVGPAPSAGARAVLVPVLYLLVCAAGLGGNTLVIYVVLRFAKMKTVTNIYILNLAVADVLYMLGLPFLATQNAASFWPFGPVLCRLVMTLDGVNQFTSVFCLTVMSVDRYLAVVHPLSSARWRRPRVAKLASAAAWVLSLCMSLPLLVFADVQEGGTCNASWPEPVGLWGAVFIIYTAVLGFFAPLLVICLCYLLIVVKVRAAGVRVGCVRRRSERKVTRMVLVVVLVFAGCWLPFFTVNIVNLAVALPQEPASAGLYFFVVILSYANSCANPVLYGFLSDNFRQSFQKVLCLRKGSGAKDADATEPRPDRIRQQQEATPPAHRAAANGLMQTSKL
# T1 sequence (P30872 whole entry): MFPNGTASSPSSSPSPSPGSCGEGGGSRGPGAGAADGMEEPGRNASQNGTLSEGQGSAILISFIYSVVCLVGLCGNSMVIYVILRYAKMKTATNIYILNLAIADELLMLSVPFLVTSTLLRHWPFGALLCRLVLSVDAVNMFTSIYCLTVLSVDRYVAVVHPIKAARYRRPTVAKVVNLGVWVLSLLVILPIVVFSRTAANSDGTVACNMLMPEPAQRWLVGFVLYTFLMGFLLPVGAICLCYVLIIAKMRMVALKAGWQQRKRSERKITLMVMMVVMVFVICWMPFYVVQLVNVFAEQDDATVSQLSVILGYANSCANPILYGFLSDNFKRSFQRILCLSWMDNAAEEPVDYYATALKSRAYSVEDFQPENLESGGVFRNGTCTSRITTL
# T2 sequence (P30874 whole entry): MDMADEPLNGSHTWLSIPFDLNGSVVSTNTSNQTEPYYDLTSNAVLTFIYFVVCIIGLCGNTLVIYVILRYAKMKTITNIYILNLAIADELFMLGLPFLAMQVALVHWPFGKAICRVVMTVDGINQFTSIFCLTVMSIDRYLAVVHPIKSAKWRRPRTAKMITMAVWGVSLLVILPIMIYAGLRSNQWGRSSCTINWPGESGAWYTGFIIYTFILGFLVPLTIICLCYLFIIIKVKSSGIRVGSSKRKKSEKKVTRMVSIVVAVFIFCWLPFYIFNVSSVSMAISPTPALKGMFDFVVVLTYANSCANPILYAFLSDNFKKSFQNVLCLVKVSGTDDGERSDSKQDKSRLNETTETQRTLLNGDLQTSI
# T3 sequence (P32745 whole entry): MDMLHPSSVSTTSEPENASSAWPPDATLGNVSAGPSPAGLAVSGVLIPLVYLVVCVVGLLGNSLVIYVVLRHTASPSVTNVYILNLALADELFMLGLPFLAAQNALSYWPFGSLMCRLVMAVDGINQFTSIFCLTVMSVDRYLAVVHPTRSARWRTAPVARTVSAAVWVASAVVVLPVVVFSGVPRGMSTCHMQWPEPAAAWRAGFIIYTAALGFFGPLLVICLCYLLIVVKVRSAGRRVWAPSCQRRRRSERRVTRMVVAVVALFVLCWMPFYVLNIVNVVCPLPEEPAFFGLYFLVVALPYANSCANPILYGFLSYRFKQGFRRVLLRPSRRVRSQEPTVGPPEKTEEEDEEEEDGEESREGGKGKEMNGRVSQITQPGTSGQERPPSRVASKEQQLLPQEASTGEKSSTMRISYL
smiles,measurement,setting,value
"CSc1cccn2c(C(C)(C)NC(=O)[C@H]3[C@@H]4CNC[C@@H]43)ncc12 [Compound 1a, (1R,5S,6R)-N-(2-(8-(Methylthio)Imidazo[1,5-a]Pyridin-3-yl)Prop-2-yl)-3-Azabicyclo[3.1.0]Hexane-6-Carboxamide]",half-life,[1],2.58 ± 1.07 h
same,Vd,[1]; read-out: Apparent volume of distribution,5.12 ± 1.14 L/kg
same,clearance,[1]; read-out: Clearance rate,3.18 ± 0.106 L/h/kg
same,"Mechanical allodynia test (PWT (g), mean) Baseline",rat CFA pain model [2],3.554 g
same,"Mechanical allodynia test (PWT (g), mean) 1 hour",rat CFA pain model [2]; 10 mg/kg I.P.,6.484 * # g
same,efficacy compared with Control Compound A (in words),"rat CFA pain model [2]; 10 mg/kg I.P., 1 hour and 3 hours after administration",significantly better than that of Control Compound A
same,"Mechanical allodynia test (PWT (g), mean) 3 hours",rat CFA pain model [2]; 10 mg/kg I.P.,8.371 **** g
same,inhibition of CFA-induced mechanical allodynia (in words),rat CFA pain model [2]; 10 mg/kg I.P.,inhibited CFA-induced mechanical allodynia
same,Paw withdrawal threshold (PWT(g)) (average) 0 hours,rat CFA pain model [3]; 10 mg/kg oral group,3.016 g
same,Paw withdrawal threshold (PWT(g)) (average) 1 hour,rat CFA pain model [3]; 10 mg/kg oral,4.020 g
same,Paw withdrawal threshold (PWT(g)) (average) 2 hours,rat CFA pain model [3]; 10 mg/kg oral,6.722 * g
same,Paw withdrawal threshold (PWT(g)) (average) 4 hours,rat CFA pain model [3]; 10 mg/kg oral,8.438 **** g
same,Paw withdrawal threshold (PWT(g)) (average) 0 hours,rat CFA pain model [3]; 30 mg/kg oral group,3.118 g
same,Paw withdrawal threshold (PWT(g)) (average) 1 hour,rat CFA pain model [3]; 30 mg/kg oral,4.173 g
same,Paw withdrawal threshold (PWT(g)) (average) 2 hours,rat CFA pain model [3]; 30 mg/kg oral,7.637 ** g
same,Paw withdrawal threshold (PWT(g)) (average) 4 hours,rat CFA pain model [3]; 30 mg/kg oral,10.958 **** ### g
same,Paw withdrawal threshold (PWT(g)) (average) 0 hours,rat CFA pain model [3]; 100 mg/kg oral group,3.118 g
same,Paw withdrawal threshold (PWT(g)) (average) 1 hour,rat CFA pain model [3]; 100 mg/kg oral,3.855 g
same,Paw withdrawal threshold (PWT(g)) (average) 2 hours,rat CFA pain model [3]; 100 mg/kg oral,9.549 **** g
same,Paw withdrawal threshold (PWT(g)) (average) 4 hours,rat CFA pain model [3]; 100 mg/kg oral,9.687 **** # g
same,efficacy compared with positive control compound indomethacin (in words),"rat CFA pain model [3]; 30 mpk and 100 mpk groups, oral, 4 hours after administration",significantly better than that of the positive control compound indomethacin
same,inhibition of CFA-induced mechanical hyperalgesia (in words),"rat CFA pain model [3]; oral 10, 30, 100 mg/kg, 2 and 4 hours after administration",dose-dependently inhibit
same,onset dose,"rat CFA pain model [3]; oral, inhibition of CFA-induced mechanical hyperalgesia",10 mg/kg
same,Ki,human SSTR1,> 8280 nM
same,Ki,human SSTR2,> 5310 nM
same,Ki,human SSTR3,> 3420 nM
same,Ki,human SSTR5,> 5650 nM
same,Ki,human SSTR4,0.00552 µM
same,SSTR4 selectivity (in words),human SSTR4; binding selectivity to SSTRs 1-5,the best
same,SSTR4 /SSTR 1,"human SSTR4; ratio of binding Ki values, selectivity",> 1500
"Cc1cccc2c(C(C)(C)NC(=O)[C@H]3[C@@H]4CNC[C@@H]43)nn(C)c12 [Control Compound A, reference compound]","Mechanical allodynia test (PWT (g), mean) Baseline",rat CFA pain model [2],3.765 g
same,"Mechanical allodynia test (PWT (g), mean) 1 hour",rat CFA pain model [2]; 10 mg/kg I.P.,3.813 g
same,"Mechanical allodynia test (PWT (g), mean) 3 hours",rat CFA pain model [2]; 10 mg/kg I.P.,6.237 * g
same,inhibition of CFA-induced mechanical allodynia (in words),rat CFA pain model [2]; 10 mg/kg I.P.,inhibited CFA-induced mechanical allodynia
same,Ki,human SSTR1,1800 nM
same,Ki,human SSTR2,> 5310 nM
same,Ki,human SSTR3,> 3420 nM
same,Ki,human SSTR5,> 5650 nM
